In assay [1] the target is T1, Glucocorticoid Receptor (Homo sapiens, UniProt P04150).
T1 construct: These cells express large amount of the GR and are very responsive to GC treatment; endogenous in cells; host or cells: A549 cells transiently transfected with the MMTV-LUC reporter
T1 sequence (P04150 1-777): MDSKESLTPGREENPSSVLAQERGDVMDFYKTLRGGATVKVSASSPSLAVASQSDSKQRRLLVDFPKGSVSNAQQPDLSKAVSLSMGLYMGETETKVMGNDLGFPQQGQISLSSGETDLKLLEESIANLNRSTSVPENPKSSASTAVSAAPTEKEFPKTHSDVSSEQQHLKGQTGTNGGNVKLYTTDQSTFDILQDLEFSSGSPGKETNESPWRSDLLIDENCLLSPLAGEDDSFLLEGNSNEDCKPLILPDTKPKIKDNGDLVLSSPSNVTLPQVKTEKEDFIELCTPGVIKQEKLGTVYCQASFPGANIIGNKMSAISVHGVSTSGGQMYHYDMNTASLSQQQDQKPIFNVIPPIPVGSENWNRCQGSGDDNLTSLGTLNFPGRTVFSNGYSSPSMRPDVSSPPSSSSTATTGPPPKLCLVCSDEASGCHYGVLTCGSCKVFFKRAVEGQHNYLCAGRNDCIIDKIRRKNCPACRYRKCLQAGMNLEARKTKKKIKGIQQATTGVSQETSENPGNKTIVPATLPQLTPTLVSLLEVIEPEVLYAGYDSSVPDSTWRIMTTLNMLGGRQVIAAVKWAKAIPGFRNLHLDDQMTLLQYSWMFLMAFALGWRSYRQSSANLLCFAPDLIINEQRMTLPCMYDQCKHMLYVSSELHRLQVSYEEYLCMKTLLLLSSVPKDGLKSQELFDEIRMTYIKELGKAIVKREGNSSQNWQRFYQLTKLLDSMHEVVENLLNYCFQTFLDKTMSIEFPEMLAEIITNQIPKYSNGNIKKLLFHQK
Description: Trans-Activation Modulation of Glucocorticoid Receptor (GRAMMER), MMTV-LUC reporter gene in A549 cells. The note with it: Table 1; for Emax: A549, A549 cells, Emax relative to 300 nM dexamethasone, read-out: Transactivation A549 Cells GRAMMER Emax; for EC50: inflection point, A549 cells, read-out: Transactivation A549 Cells GRAMMER IP. It is filed as cell-based. The method, boiled down:
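Luciferase from a transiently transfected MMTV-LUC reporter was measured after 24 h compound exposure (≤1% DMSO) in A549 or MDA-MB-453 cells. For antagonism, the decrease of 10 nM dexamethasone-induced signal was calculated. For agonism, Emax was referenced to 300 nM dexamethasone.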
Background: A reporter such as luciferase makes a cellular process visible.

In assay [2] the target is T2, human GR (Homo sapiens, UniProt P04150).
T2 construct: U937 cells contain an endogenous glucocorticoid receptor (GR); endogenous in cells; host or cells: U937 cells stably transfected with the TNF-alpha promoter/beta-lactamase reporter
T2 sequence (P04150 1-777): T1 sequence (P04150 1-777)
Description: Transrepression Assay (GITAR), TNFα-β-lactamase reporter gene in U937 cells. In kind it is cell-based. The note with it: for GITAR Greater than by GRAMMER % SEP: GITAR Emax minus GRAMMER Emax; for EC50: inflection point, U937 cells, read-out: Transrepression U937 Cells GITAR IP. In short, it runs like this:
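Repression of PMA (5 ng/ml final)/LPS (100 ng/ml final)-induced TNF-α promoter activity, read as β-lactamase cleavage of CCF2-AM, in stably transfected U937 cells expressing native GR. Compound added 30-45 min before stimulation, overnight (~18 hr) 37° C; normalized to 100 nM dexamethasone (100%).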

Assay [3] deals with T3, glucocorticoid receptor (GR) (Homo sapiens, UniProt P04150).
T3 sequence (P04150 1-777): T1 sequence (P04150 1-777)
Description: Ligand binding assay (GR BIND), 3H-dexamethasone displacement in MDA-MB-453 cell lysate. The conditions noted are these: GR BIND Ki, Table 1.

The mark [4] stands for this setting: U-937, U937 cells, activity repressed by 100 nM dexamethasone = 100%, Table 1, read-out: Transrepression U937 Cells GITAR Emax.
[5] abbreviates: U-937, text statement, 100 nM dexamethasone = 100%, read-out: maximal activity in the transrepression assay (GITAR).

Like-named read-outs stand apart in the source and are kept apart here.

A word on the Ki: it is a measure of affinity in units of concentration, obtained from inhibition or displacement. Low values mean tighter binding, high ones weaker binding. In the case of `C[C@]12Cc3cnn(-c4ccc(F)cc4)c3C=C1CC[C@@H]2C(=O)N1CCC(C(F)(F)F)CC1` [Compound 42, (4αR,5S)-1-(4-fluorophenyl)-4α-methyl-5-{[4-(trifluoromethyl)piperidin-1-yl]carbonyl}-1,4,4α,5,6,7-hexahydrocyclopenta[f]indazole], the Emax is 29.5% in assay [1], 64.8% in assay [2] (setting [4]) and more than 5% in assay [2] (setting [5]). Besides, the results for the EC50 in assay [1] and in assay [2] (Table 1) were 419 nM and 889 nM, respectively. The “GITAR Greater than by GRAMMER % SEP” value in assay [2] (Table 1) turned out to be 35.3%. The Ki in assay [3] worked out at 21.2 nM.
Regarding `COC[C@H]1CCCN1C(=O)[C@H]1CCC2=Cc3c(cnn3-c3ccc(F)cc3)C[C@@]21C` [Compound 43, (4αR,5S)-1-(4-fluorophenyl)-5-{[(2R)-2-(methoxymethyl)pyrrolidin-1-yl]carbonyl}-4α-methyl-1,4,4α,5,6,7-hexahydrocyclopenta[f]indazole], the values for the Emax in assay [1], in assay [2] (setting [4]) and in assay [2] (setting [5]) were 1.5%, 21% and more than 5%, respectively. Further, the figures for the EC50 in assay [1] and in assay [2] (Table 1) were 5000 nM and 385 nM, respectively. Also, the “GITAR Greater than by GRAMMER % SEP” value in assay [2] (Table 1) is 19.5%. Besides, the Ki in assay [3] worked out at 49.8 nM.
In the case of `CN(C(=O)[C@H]1CCC2=Cc3c(cnn3-c3ccc(F)cc3)C[C@@]21C)C1CCCCC1` [Compound 44, (4αR,5S)-N-cyclohexyl-1-(4-fluorophenyl)-N,4α-dimethyl-1,4,4α,5,6,7-hexahydrocyclopenta[f]indazole-5-carboxamide], the Emax in assay [1] is 3.2%; in assay [2] (setting [4]) it was 38.5%; in assay [2] (setting [5]) it was more than 5%. The figures for the EC50 in assay [1] and in assay [2] (Table 1) were 398 nM and 1810 nM, respectively. Also, the “GITAR Greater than by GRAMMER % SEP” value in assay [2] (Table 1) came out at 35.3%. The compound also displayed a Ki in assay [3] of 23.2 nM.
For `COCCN(Cc1ccc(OC)cc1)C(=O)[C@H]1CCC2=Cc3c(cnn3-c3ccc(F)cc3)C[C@@]21C` [Compound 45, (4αR,5S)-1-(4-fluorophenyl)-N-(4-methoxybenzyl)-N-(2-methoxyethyl)-4α-methyl-1,4,4α,5,6,7-hexahydrocyclopenta[f]indazole-5-carboxamide], the Emax in assay [1] is 2.2%; in assay [2] (setting [4]), 19.3%; in assay [2] (setting [5]), more than 5%. The EC50 in assay [1] was determined as 2140 nM; in assay [2] (Table 1) it was 158 nM. In assay [2] (Table 1), the “GITAR Greater than by GRAMMER % SEP” value was determined as 17.1%. Besides, in assay [3], the inhibition constant Ki turned out to be 8.7 nM.
In the case of `CN(Cc1cccc(C(F)(F)F)c1)C(=O)[C@H]1CCC2=Cc3c(cnn3-c3ccc(F)cc3)C[C@@]21C` [Compound 46, (4αR,5S)-1-(4-fluorophenyl)-N,4α-dimethyl-N-[3-(trifluoromethyl)benzyl]-1,4,4α,5 ,6,7-hexahydrocyclopenta[f]indazole-5-carboxamide], the results for the Emax in assay [1], in assay [2] (setting [4]) and in assay [2] (setting [5]) were 2.6%, 15.3% and more than 5%, respectively. The EC50 in assay [1] was determined as 2410 nM; in assay [2] (Table 1), 87.4 nM. Further, the “GITAR Greater than by GRAMMER % SEP” value in assay [2] (Table 1) is listed as 12.7%. Also, in assay [3], affinity was put at a Ki of 17.6 nM.
Take `COc1cccc(CN(C)C(=O)[C@H]2CCC3=Cc4c(cnn4-c4ccc(F)cc4)C[C@@]32C)c1` [Compound 47, (4αR,5S)-1-(4-fluorophenyl)-N-(3-methoxybenzyl)-N,4α-dimethyl-1,4,4α,5,6,7-hexahydrocyclopenta[f]indazole-5-carboxamide]: the Emax in assay [1] was 7.4%; in assay [2] (setting [4]), 27.8%; in assay [2] (setting [5]), more than 5%. Moreover, the EC50 in assay [1] worked out at 2020 nM; in assay [2] (Table 1) it was 1690 nM. The “GITAR Greater than by GRAMMER % SEP” value in assay [2] (Table 1) is 20.4%. The same compound displayed a Ki in assay [3] of 7.1 nM.
Turning to `CN(CCOc1ccccc1)C(=O)[C@H]1CCC2=Cc3c(cnn3-c3ccc(F)cc3)C[C@@]21C` [Compound 48, (4αR,5S)-1-(4-fluorophenyl)-N,4α-dimethyl-N-(2-phenoxyethyl)-1,4,4α,5,6,7-hexahydrocyclopenta[f] indazole-5-carboxamide], the results for the Emax in assay [1], in assay [2] (setting [4]) and in assay [2] (setting [5]) were 2.7%, 22.8% and more than 5%, respectively. Also, the EC50 in assay [1] was found to be 1390 nM; in assay [2] (Table 1), 410 nM. Also, the “GITAR Greater than by GRAMMER % SEP” value in assay [2] (Table 1) stood at 20.0%. In addition, in assay [3], the Ki worked out at 7 nM.
For the compound `C[C@]12Cc3cnn(-c4ccc(F)cc4)c3C=C1CC[C@@H]2C(=O)N(CCc1ccccc1)Cc1ccccc1` [Compound 49, (4αR,5S)-N-benzyl-1-(4-fluorophenyl)-4α-methyl-N-(2-phenylethyl)-1,4,4,5,6,7-hexahydrocyclopenta[f]indazole-5-carboxamide], the Emax in assay [1] was 1.5%; in assay [2] (setting [4]) it was 11.6%; in assay [2] (setting [5]), more than 5%. Moreover, the results for the EC50 in assay [1] and in assay [2] (Table 1) were 260 nM and 145 nM, respectively. The “GITAR Greater than by GRAMMER % SEP” value in assay [2] (Table 1) came to 10.1%. This compound yielded a Ki in assay [3] of 1.9 nM.
Regarding `COc1ccccc1CN(C)C(=O)[C@H]1CCC2=Cc3c(cnn3-c3ccc(F)cc3)C[C@@]21C` [Compound 50, (4αR,5S)-1-{4-fluorophenyl)-N-(2-methoxybenzyl)-N,4α-dimethyl-hexahydrocyclopenta[f]indazole-5-carboxamide], the Emax is 3.4% in assay [1], 20.3% in assay [2] (setting [4]) and more than 5% in assay [2] (setting [5]). The EC50 in assay [1] came to 1460 nM; in assay [2] (Table 1), 226 nM. Also, the “GITAR Greater than by GRAMMER % SEP” value in assay [2] (Table 1) is recorded as 16.9%. The compound also yielded a Ki in assay [3] of 9 nM.
As to `C[C@]12Cc3cnn(-c4ccc(F)cc4)c3C=C1CC[C@@H]2C(=O)N1CCC(S(=O)(=O)c2ccccc2)CC1` [Compound 51, (4αR,5S)-1-(4-fluorophenyl)-4α-methyl-5-{[4-(phenylsulfonyl)piperidin-1-yl]carbonyl}1,4,4α,5,6,7-hexahydrocyclopenta[f]indazole], the Emax in assay [1] was 2.9%; in assay [2] (setting [4]), 35.1%; in assay [2] (setting [5]) it was more than 5%. Also, the values for the EC50 in assay [1] and in assay [2] (Table 1) were 1190 nM and 1380 nM, respectively. In addition, in assay [2] (Table 1), the “GITAR Greater than by GRAMMER % SEP” value is reported as 32.2%. The inhibition constant Ki in assay [3] came to 39.5 nM.
For the compound `CCN(Cc1ccccc1)C(=O)[C@H]1CCC2=Cc3c(cnn3-c3ccc(F)cc3)C[C@@]21C` [Compound 52, (4αR,5S}-N-benzyl-N-ethyl-1-(4-fluorophenyl)-4α-methyl-1,4,4α,5,6,7-hexahydrocyclopenta[f]indazole-5-carboxamide], the values for the Emax in assay [1], in assay [2] (setting [4]) and in assay [2] (setting [5]) were 11.6%, 33.2% and more than 5%, respectively. Further, the figures for the EC50 in assay [1] and in assay [2] (Table 1) were 1710 nM and 971 nM, respectively. The “GITAR Greater than by GRAMMER % SEP” value in assay [2] (Table 1) is recorded as 21.7%. The same compound displayed a Ki in assay [3] of 2.6 nM.
Consider `CC1CC(C)CN(C(=O)[C@H]2CCC3=Cc4c(cnn4-c4ccc(F)cc4)C[C@@]32C)C1` (stereo partly drawn) [Compound 53, (4αR,5S)-5-[(3,5-dimethylpiperidin-1-yl)carbonyl]-1-(4-fluorophenyl)-4α-methyl-1,4,4α,5,6,7-hexahydrocyclopenta[f]indazole], for which the Emax in assay [1] was 18.3%; in assay [2] (setting [4]), 58.4%; in assay [2] (setting [5]), more than 5%. Also, the EC50 amounted to 2290 nM in assay [1] and 2250 nM in assay [2] (Table 1). Moreover, in assay [2] (Table 1), the “GITAR Greater than by GRAMMER % SEP” value is on record as 40.2%. In assay [3], this compound yielded a Ki of 37.4 nM.
For the compound `CC(C)CN(C)C(=O)[C@H]1CCC2=Cc3c(cnn3-c3ccc(F)cc3)C[C@@]21C` [Compound 54, (4αR,5S)-1-(4-fluorophenyl)-N-isobutyl-N,4α-dimethyl-1,4,4α,5,6,7-hexahydrocyclopenta[f]indazole-5-carboxamide], the Emax is 3.1% in assay [1], 40.5% in assay [2] (setting [4]) and more than 5% in assay [2] (setting [5]). In addition, the EC50 in assay [1] was found to be 1250 nM; in assay [2] (Table 1), 2210 nM. Further, the “GITAR Greater than by GRAMMER % SEP” value in assay [2] (Table 1) is given as 37.4%. In assay [3], this compound showed a Ki of 32.1 nM.

For the origin of these results see patent US8338472B2, “Hexahydrocyclopentyl[F]indazole carboxamides and derivatives thereof as selective glucocorticoid receptor modulators” (Merck Sharp & Dohme Corp., priority 2008, dated 2012).
